Assay results reported in patent US7642400B2, “Protein kinase C iota” (Mayo Foundation for Medical Education and Research, priority 2004, dated 2010).
Counter-ions that a name gives are not always drawn. Like-named read-outs stand apart in the source and are kept apart here.

Biological target: T1, interaction of PKCι polypeptides with PAR6 polypeptides (Homo sapiens, UniProt P41743)
T1 construct: amino acids 1-113 or a full-length PKCι polypeptide; 6xHis; made in house
T1 sequence (P41743 10-122): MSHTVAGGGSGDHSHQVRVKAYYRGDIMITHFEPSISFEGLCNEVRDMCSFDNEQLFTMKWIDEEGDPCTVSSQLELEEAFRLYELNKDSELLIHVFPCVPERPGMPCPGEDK
Test: Secondary screen: PYN bound to plate-immobilised biotin-tagged PAR6
Format: binding
Conditions: for dose-response analysis using the secondary screening assay: increasing amounts, e.g. 0, 0.1, 1, 10, 100, and 100 μM
Procedure: Multiple test compounds that were classified as hits in the primary screen as well as additional related compounds were evaluated in a secondary screen designed as follows. Briefly, a 96-well microtiter plate coated with streptavidin (Nunc #436014) was incubated for 2-4 hours at room temperature with 100 μl of a 20-30 μg/ml solution of biotin-tagged PAR6 (whole polypeptide) in phosphate-buffered saline containing Tween-20 (PBST). Plates were washed twice with PBST, then once with incubation buffer (50 mM Tris, pH 8.0; 135 mM NaCl; 10% glycerol; 0.002% EDTA). Incubation buffer (50 μl) was added to each well. The compounds to be tested were added (10 μl) followed by PYN (50 μl) diluted in incubation buffer to an approximate concentration of 4000-5000 relative fluorescent units per 50 μl. Plates were incubated overnight at 4° C. Plates were washed twice with incubation buffer, after which 50 μl incubation buffer was added to retain moisture in the wells. The amount of PYN bound on the plates was determined by measuring yellow fluorescence (532/526) in a Typhoon imager. Fluorescence was quantitated by Softmax Pro software.
A dose-response analysis was performed using the secondary screening assay and increasing amounts (e.g., 0, 0.1, 1, 10, 100, and […]) of gossypol, hexestrol, thimerosal, ebselen, ATG, ATM, ellagic acid, cisplatin, apomorphine, or phenylmercuric acetate.

[1] = amount of PYN bound to biotin-tagged PAR6 plates

Compound | Secondary Screen [1] | other results
C[n+]1c2cc(N)ccc2cc2ccc(N)cc21.[Cl-] [Acriflavinium hydrochloride] | No effect | 
N=C(N)NC(=O)c1nc(Cl)c(N)nc1N [Amiloride] | No effect | 
CCN(CC)Cc1cc(Nc2ccnc3cc(Cl)ccc23)ccc1O [Amodiaquine] | No effect | 
CCCc1ncc(C[n+]2ccccc2C)c(N)n1 [Amprolium] | No effect | 
CN1CCc2cccc3c2[C@H]1Cc1ccc(O)c(O)c1-3 [Apomorphine] | Confirmed | Secondary Screen (amount of PYN bound to biotin-tagged PAR6 plates, listed as apomorphine): confirmed; dose-response analysis using the secondary screening assay: dose-dependent response was detected
COc1ccc(C(Cl)=C(c2ccc(OC)cc2)c2ccc(OC)cc2)cc1 [Chlorotrianisene] | No effect (related compound | 
Oc1cc(O)c2c(c1)O[C@H](c1ccc(O)c(O)c1)[C@@H](O)C2 [Cianidanol] | No effect (related compound | 
N.N.[Cl][Pt][Cl] [Cisplatin] | Confirmed | Secondary Screen (amount of PYN bound to biotin-tagged PAR6 plates, listed as cisplatin): confirmed; dose-response analysis using the secondary screening assay: dose-dependent response was detected
Cc1cc(N)c2ccccc2[n+]1CCCCCCCCCC[n+]1c(C)cc(N)c2ccccc21 [Dequalinium chloride] | No effect | 
O=c1oc2c(O)c(O)cc3c(=O)oc4c(O)c(O)cc1c4c23 [Ellagic acid] | Confirmed | Secondary Screen (amount of PYN bound to biotin-tagged PAR6 plates, listed as ellagic acid): confirmed; dose-response analysis using the secondary screening assay: dose-dependent response was detected
CNC[C@H](O)c1ccc(O)c(O)c1 [Epinephrine bitartrate] | No effect | 
CCC(=O)O[C@H]1[C@H](O[C@@H]2[C@@H](C)[C@H](O[C@H]3C[C@@](C)(OC)[C@@H](O)[C@H](C)O3)[C@@H](C)C(=O)O[C@H](CC)[C@@](C)(O)[C@H](O)[C@@H](C)C(=O)[C@H](C)C[C@@]2(C)O)O[C@H](C)C[C@@H]1N(C)C [Erythromycin propionate lauryl sulfate] | No effect | 
C[C@]12CC[C@@H](O)C[C@H]1CC[C@@H]1[C@@H]2CC[C@]2(C)C(=O)CC[C@@H]12 [Etiocholanolone] |  | Secondary Screen: No effect
Nc1nc2ncc(CNc3ccc(C(=O)N[C@@H](CCC(=O)O)C(=O)O)cc3)nc2c(=O)[nH]1 [Folic acid] | No effect | 
O=C1OCCN1/N=C/c1ccc([N+](=O)[O-])o1 [Furazolidone] | No effect | 
O=C(O)c1cc(O)ccc1O [Gentisic acid] | No effect | 
O=C(OCC(O)CO)c1ccccc1Nc1ccnc2cc(Cl)ccc12 (stereo not shown) [Glafenine] | No effect | 
COc1ccc2c(c1OC)C(=O)O[C@@H]2[C@H]1c2cc3c(cc2CCN1C)OCO3 [Hydrastine] | No effect | 
O=C(O)c1cc2ccccc2c(Cc2c(O)c(C(=O)O)cc3ccccc23)c1O.OCCOCCN1CCN(C(c2ccccc2)c2ccc(Cl)cc2)CC1 [Hyydroxyzine pamoate] | No effect | 
CC(C)NCC(O)c1ccc(O)c(O)c1 (stereo not shown) [Isoproterenol hydrochloride] | No effect | 
CC(=O)/N=c1/sc(S(N)(=O)=O)nn1C [Methazolamide] | No effect | 
CC[C@@H](CO)NC(=O)[C@@H]1C=C2c3cccc4[nH]cc(c34)C[C@H]2N(C)C1 [Methylergonovine] | No effect | 
CC[C@@]1([C@@H]2O[C@@H]([C@H]3O[C@@](O)(CO)[C@H](C)C[C@@H]3C)C[C@@H]2C)CC[C@H]([C@]2(C)CC[C@]3(C[C@H](O)[C@@H](C)[C@@H]([C@@H](C)[C@@H](OC)[C@H](C)C(=O)O)O3)O2)O1 [Monensin, sodium] | No effect | 
COc1c(C)c2c(c(O)c1C/C=C(\C)CCC(=O)O)C(=O)OC2 [Mycophenolic acid] | No effect | 
C[C@@H]1O[C@@H](O[C@H]2[C@H](Oc3cc(O)c4c(c3)O[C@H](c3ccc(O)cc3)CC4=O)O[C@H](CO)[C@@H](O)[C@@H]2O)[C@H](O)[C@H](O)[C@H]1O [Naringin] | No effect | 
